# Laboratory results taken from the supplement of paper PMC8967900.
# Experiments:
# Test in all cases: selective drug sensitivity score (sDSS, relative to normal bone marrow) (sDSS (score)); higher = more potent and effective on the cell line relative to normal bone marrow cells
# Conditions in all cases: 72 h
# MOLT-14 = test system: MOLT-14
# MHH-CALL-3 = test system: MHH-CALL-3
# CCRF-HSB2 = test system: CCRF-HSB2
# MHH-CALL-4 = test system: MHH-CALL-4
# LC4-1 = test system: LC4-1
# NALM-16 = test system: NALM-16
# KASUMI-9 = test system: KASUMI-9
# TMD5 = test system: TMD5
# COG-LL-402h = test system: COG-LL-402h
# SEM cells = test system: SEM cells
# HAL-01 = test system: HAL-01
# ALL-SIL = test system: ALL-SIL
# P12-ICHIKAWA = test system: P12-ICHIKAWA
# COG-LL-332h = test system: COG-LL-332h
# KARPAS-45 = test system: KARPAS-45
# MHH-CALL-2 = test system: MHH-CALL-2
# NALM-6 = test system: NALM-6
# PF-382 = test system: PF-382
# RPMI-8402 = test system: RPMI-8402
# COG-LL-355h = test system: COG-LL-355h
# 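Also: ALL cell lines in 384-well plates, five doses spanning 10,000-fold, each plate scaled between vehicle and 100 µmol/L benzalkonium chloride controls, sDSS an adapted area-under-curve metric.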
Compound,selective drug sensitivity score (MOLT-14),selective drug sensitivity score (MHH-CALL-3),selective drug sensitivity score (CCRF-HSB2),selective drug sensitivity score (MHH-CALL-4),selective drug sensitivity score (LC4-1),selective drug sensitivity score (NALM-16),selective drug sensitivity score (KASUMI-9),selective drug sensitivity score (TMD5),selective drug sensitivity score (COG-LL-402h),selective drug sensitivity score (SEM cells),selective drug sensitivity score (HAL-01),selective drug sensitivity score (ALL-SIL),selective drug sensitivity score (P12-ICHIKAWA),selective drug sensitivity score (COG-LL-332h),selective drug sensitivity score (KARPAS-45),selective drug sensitivity score (MHH-CALL-2),selective drug sensitivity score (NALM-6),selective drug sensitivity score (PF-382),selective drug sensitivity score (RPMI-8402),selective drug sensitivity score (COG-LL-355h)
Cc1cc2c(F)c(Oc3ncnn4cc(OC[C@@H](C)O)c(C)c34)ccc2[nH]1 [Brivanib] (top concentration 1000 nM),0.26,-0.04,-0.04,-0.04,-0.04,-0.04,-0.04,-0.04,-0.04,-0.04,-0.04,-0.04,1.56,0.16,0.06,-0.04,-0.04,0.06,0.46,-0.04
CCCCNc1ncc(C(=O)NCc2ccc(-n3ccnc3)cc2)c(NC2CCC(O)CC2)n1 (stereo not given) [UNC2881] (top concentration 2500 nM),0,0,0,0.5,0,0,0,0.5,0,6.3,0.3,2.8,0,0.1,0.5,0,0,0,0,0
CNC(=O)[C@@H](NC(=O)[C@H](CC(C)C)[C@H](O)C(=O)NO)C(C)(C)C [Marimastat] (top concentration 10000 nM),2.92,-1.28,-0.78,0.92,-1.28,4.22,-1.28,3.72,-0.38,-1.08,-1.28,-1.28,1.22,-0.18,3.32,9.42,-1.28,-0.68,-0.68,-1.28
O=C1NC(=O)[C@@H](c2cn3c4c(cccc24)CCC3)[C@@H]1c1c[nH]c2ccccc12 [Tivantinib] (top concentration 1000 nM),3.18,0.78,3.58,4.88,4.08,4.28,5.38,5.38,2.38,7.18,5.78,7.18,3.68,3.48,4.08,8.48,5.08,2.78,3.68,0.18
CC1(C)CCC(CN2CCN(c3ccc(C(=O)NS(=O)(=O)c4ccc(NCC5CCOCC5)c([N+](=O)[O-])c4)c(Oc4cnc5[nH]ccc5c4)c3)CC2)=C(c2ccc(Cl)cc2)C1 [Venetoclax] (top concentration 1000 nM),8,31.5,-2.9,14.2,31.8,22.6,25.4,20.8,14.1,21.1,20.4,16.5,-2.4,-3.3,9.5,28.7,4.4,-4.1,-4.4,31.2
COc1cc(C)c(/C=C/C(C)=C/C=C/C(C)=C/C(=O)O)c(C)c1C [Acitretin] (top concentration 10000 nM),-1.4,-0.2,0,-1.6,-0.9,-1.6,2.9,-1.6,-0.1,0.4,-1.6,-1.6,-0.8,0,0.2,-0.7,-1.5,-1.4,-1.6,2.3
CC(C)C[C@H](NC(=O)[C@@H](COC(C)(C)C)NC(=O)[C@H](Cc1ccc(O)cc1)NC(=O)[C@H](CO)NC(=O)[C@H](Cc1c[nH]c2ccccc12)NC(=O)[C@H](Cc1cnc[nH]1)NC(=O)[C@@H]1CCC(=O)N1)C(=O)N[C@@H](CCCNC(=N)N)C(=O)N1CCC[C@H]1C(=O)NNC(N)=O [Goserelin] (top concentration 10000 nM),-0.06,-0.06,0.04,0.14,-0.06,-0.06,-0.06,-0.06,-0.06,-0.06,-0.06,-0.06,-0.06,-0.06,-0.06,-0.06,-0.06,-0.06,-0.06,-0.06
COc1cc(C(=O)O)ccc1NC(=O)[C@@H]1N[C@@H](CC(C)(C)C)[C@](C#N)(c2ccc(Cl)cc2F)[C@H]1c1cccc(Cl)c1F [Idasanutlin] (top concentration 10000 nM),15.6,21.9,15.5,12.3,19.1,-8.74,23,12.6,15.4,-10,19.1,-12.5,-11.5,14.5,-8.34,18.7,5.66,-12.2,-12.5,13.7
CC1(C)C(C(=O)Nc2ccc(S(=O)(=O)c3ccc(NC(=O)C4C(C)(C)C4(C)C)cc3)cc2)C1(C)C [BRD7116] (top concentration 10000 nM),2.16,-0.24,0.16,-0.24,1.76,1.06,4.46,0.66,-0.24,-0.24,3.36,-0.24,0.66,-0.24,-0.04,0.16,1.96,0.36,0.96,-0.24
CCC1=C[C@@H]2CN(C1)Cc1c([nH]c3ccccc13)[C@@](C(=O)OC)(c1cc3c(cc1OC)N(C)[C@H]1[C@@](O)(C(=O)OC)[C@H](OC(C)=O)[C@]4(CC)C=CCN5CC[C@]31[C@@H]54)C2 [Vinorelbine] (top concentration 10000 nM),22.9,11,20.1,8.98,23.4,18.3,24.2,13.4,22.2,24.1,1.38,23.6,15.9,20.5,17.8,19.3,14.9,11,21,5.98
CCN1CCN(c2ccc(Nc3cc(N(C)C(=O)Nc4c(Cl)c(OC)cc(OC)c4Cl)ncn3)cc2)CC1 [Infigratinib] (top concentration 1000 nM),0,0,0,0,0,0,0,0,0,0,0,0,0,0,0,0,0,0,0,0
CC(O)c1cc(C(=O)N[C@@H](C)Cn2ccc(-c3ccc(C#N)c(Cl)c3)n2)n[nH]1 (stereo not given in full) [ODM-201] (top concentration 2500 nM),0.82,0.82,1.62,-0.28,1.62,-0.28,-0.18,-0.28,4.62,-0.28,1.42,4.72,0.22,1.52,2.32,0.02,1.22,0.52,0.12,2.52
C[C@@H]1CCN(C(=O)CC#N)C[C@@H]1N(C)c1ncnc2[nH]ccc12 [Tofacitinib] (top concentration 5000 nM),-7.66,-7.86,-3.56,-4.96,-7.86,-7.86,-7.86,-7.86,-7.86,-7.86,-7.86,-7.86,-7.86,-7.86,-7.86,-7.86,-7.86,-7.36,-7.86,0.44
CN1C(=O)N[C@H](Cc2c[nH]c3c(Cl)cccc23)C1=O [Necrostatin_2] (top concentration 10000 nM),-0.08,-0.08,-0.08,-0.08,-0.08,-0.08,-0.08,-0.08,-0.08,-0.08,-0.08,-0.08,-0.08,-0.08,-0.08,-0.08,-0.08,-0.08,-0.08,-0.08
C[C@H]1CN(C2COC2)CCN1c1ccc(Nc2cc(-c3ccnc(N4CCn5c(cc6c5CC(C)(C)C6)C4=O)c3CO)cn(C)c2=O)nc1 [GDC-0853] (top concentration 1000 nM),0,0,0,0.2,0,0,0,0,1.1,0,0,1.6,0,0,0,0,0,0,0,0
O=C(O)CC1CC(c2ccccc2)=NO1 (stereo not given) [VGX-1027] (top concentration 10000 nM),-0.04,-0.04,-0.04,-0.04,-0.04,-0.04,-0.04,-0.04,-0.04,-0.04,-0.04,-0.04,-0.04,-0.04,-0.04,-0.04,-0.04,-0.04,-0.04,-0.04
N#CC1(c2ccc(NC(=O)c3cccnc3NCc3ccncc3)cc2)CCCC1 [Apatinib] (top concentration 10000 nM),0,0,0.3,0,1.2,0,0,0,0,1,0,0,0,0,0,1.2,0.4,0,0.1,0
